Columns and labels:
[1] = target: DNA methyltransferase; details: KYSE 510 human esophageal cancer cells; cited from earlier work
[2] = system: K562 cells; test: Intracellular ROS by DCFDA fluorescent probe; assay type: cell-based, human; details: 24 h, basal 255.09±3.69 AU
Procedure: Intracellular ROS were estimated by using the DCFDA fluorescent probe. Intracellular H2O2 and other peroxides can oxidize DCFDA to highly fluorescent compound dichlorofluorescein (DCF). K562 cells were incubated at 37°C in absence and presence of EGCG (12.5 – 100 µM) for 24 h. Cells were again incubated with 10 µM DCFDA at 37°C for an additional 30 min, and then washed twice with PBS. Finally the fluorescence intensity of DCF was measured with an excitation wavelength of 485 nm and emission wavelength of 530 nm.

[3] = system: K562 cells; test: MTT cell viability assay; assay type: cell-based; details: Homo sapiens
Procedure: Cell viability of K562 cells was quantified by MTT based colorimetric assay as described elsewhere. Briefly, cells were rinsed with PBS and 0.5 mg/ml MTT was added into each sample. The mixture was incubated at 37°C for an additional 3 h. At the end of incubation period, the medium containing MTT was removed and the pellet was dissolved in 200 µl DMSO. Absorbance was measured at a wavelength of 570 nm. Cell viability was expressed as a percentage of the control culture.
The concentration (IC50) at which the K562 cell survivability was reduced to 50% was calculated for EGCG and 3-AT by MTT based cell viability assay.

[4] = target: T1, cellular catalase in K562 cells (Homo sapiens, UniProt P04040); test: Inhibition of cellular catalase activity in K562 cells; assay type: cell-based; details: 50 µM each, 2 hours at 37°C
T1 construct: endogenous in cells; host or cells: K562 cells
T1 sequence (P04040 2-527 limits assumed): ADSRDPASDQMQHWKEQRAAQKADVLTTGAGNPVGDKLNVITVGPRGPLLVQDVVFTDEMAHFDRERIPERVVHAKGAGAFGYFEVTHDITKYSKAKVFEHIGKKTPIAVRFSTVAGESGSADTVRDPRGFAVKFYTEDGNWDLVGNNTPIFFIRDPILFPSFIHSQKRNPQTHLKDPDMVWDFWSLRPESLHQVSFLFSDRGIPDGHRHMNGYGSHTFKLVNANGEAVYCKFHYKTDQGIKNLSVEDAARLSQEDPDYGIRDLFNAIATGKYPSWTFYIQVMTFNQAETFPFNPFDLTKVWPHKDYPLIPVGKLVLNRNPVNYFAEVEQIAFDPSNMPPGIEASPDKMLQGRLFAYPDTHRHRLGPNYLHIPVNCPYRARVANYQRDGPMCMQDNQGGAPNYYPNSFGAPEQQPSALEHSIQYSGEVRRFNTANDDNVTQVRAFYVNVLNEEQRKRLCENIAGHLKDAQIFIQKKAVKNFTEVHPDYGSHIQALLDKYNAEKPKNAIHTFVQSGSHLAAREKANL
Procedure: Estimation of cellular catalase activity was carried out by suspending K562 cells (5×10^4 for each sample) in 1 ml of PBS along with four catechins and 3-AT (50 µM each) separately and incubated at 37°C for 2 hours. Later, each sample was centrifuged and washed twice with PBS. The final pellet was suspended in 200 µl lysis buffer and kept on ice for 30 min. The lysate was then used in the same protocol used for evaluation of pure catalase activity.
On addition of catechins, a decrease in rate of H2O2 degradation i.e. a decrease in pure catalase activity was observed which is represented in Figure 6A. Catechins with galloyl moiety (ECG and EGCG) reduced catalase activity more than its non-gallated counterparts i.e. EGC and EC. However, Inhibition by EGCG is the closest to inhibition by known catalase inhibitor 3-AT.

O=C(O[C@@H]1Cc2c(O)cc(O)cc2O[C@@H]1c1cc(O)c(O)c(O)c1)c1cc(O)c(O)c(O)c1 [EGCG, (−)-epigallocatechin gallate]
Ki [1]: 7 µM
intracellular ROS ([2]; 12.5 µM): 298.01±4.89 AU
intracellular ROS ([2]; 25 µM): 320.83±4.03 AU
intracellular ROS ([2]; 50 µM): 354.07±4.66 AU
intracellular ROS ([2]; 100 µM): 442.90±7.43 AU
IC50 [3]: 54.5 µM
IC50 ([3]; conversion of the µM value): 27 µg/mL
inhibition of cellular catalase activity [4]: inhibited cellular catalase in K562 cancer cells

— paper PMC4099323, “Inhibition of Catalase by Tea Catechins in Free and Cellular State: A Biophysical Approach” (PLoS ONE, 2014)
